Consider nine compounds from patent US20040198663A1, “Method of treating cardiac ischemia by using erythropoietin” (priority 2003, published 2004).

The structures appear in SMILES notation. Entries after “also recorded” stand apart in the source; their conditions may differ.

In the test the test system is hearts from normoxic rabbits. The test can be described thus: Mechanism studies: inhibitors/blockers perfused alone, then with erythropoietin, before global ischemia. Also on record: species or system New Zealand White rabbit. The settings on record: for effect of protein kinase inhibitor on the cardioprotective effect of erythropoietin: inhibitor 15 min alone, then 15 min with erythropoietin 1.0 U/ml prior to ischemia. How it is done:
Resistance to myocardial ischemia. Hearts from infant rabbits were perfused with bicarbonate buffer, and biventricular function was monitored continuously throughout each experiment as described in Rafiee et al., Circulation 106:239-45 (2002). For concentration response studies, hearts were then perfused with erythropoietin (0.5-10.0 U/ml) for 15 minutes prior to 30 minutes ischemia and 35 minutes reperfusion. For mechanism studies with protein kinase inhibitors, potassium channel blockers or nitric oxide synthase inhibitors, hearts were perfused with drugs for 15 minutes alone followed by 15 minutes in combination with erythropoietin prior to ischemia. Hearts perfused with protein kinase inhibitors or potassium channel blockers alone in the absence of erythropoietin for 30 minutes prior to ischemia served as untreated controls for these studies. Recovery of post-ischemic left and right ventricular developed pressure was expressed as a percentage of its pre-drug, pre-ischemic value.
Hearts from normoxic rabbits were perfused with protein kinase inhibitors alone for 15 minutes and then combined with erythropoietin for a further 15 minute period prior to ischemia.
Hearts were perfused with KATP channel blockers alone for 15 minutes and then in combination with erythropoietin (1.0 U/ml) for another 15-minute period prior to ischemia.
Hearts were perfused with Paxilline (1 μM), a blocker of the KCa channel, alone for 15 minutes and then in combination with erythropoietin (1.0 U/ml) for another 15-minute period prior to ischemia.
Hearts from normoxic rabbits were perfused with nitric oxide synthase inhibitors combined with erythropoietin (1.0 U/ml) for 15 minutes prior to ischemia.

Take `CCCCCC(O)CCCC(=O)O` (centres unmarked) [5-hydroxydecanoate]: the “effect on the cardioprotective effect of erythropoietin” value (shortened to “effect on the cardioprotective effect”) is “partially” (5-hydroxydecanoate 300 μM, 15 min alone then 15 min with erythropoietin 1.0 U/ml) and “abolished; also recorded: only partially prevented” (5-hydroxydecanoate 300 μM, 15 min alone then 15 min with erythropoietin 1.0 U/ml, listed as 5-HD).

As for `COc1ccc(Cl)cc1C(=O)NCCc1ccc(S(=O)(=O)NC(=O)NC2CCCCC2)cc1` [Glibenclamide], the “effect on the cardioprotective effect” value is on record as “completely abolished” (glibenclamide 3 μM, 15 min alone then 15 min with erythropoietin 1.0 U/ml) and “abolished; also recorded: completely prevented” (glibenclamide 3 μM, 15 min alone then 15 min with erythropoietin 1.0 U/ml, listed as glibenclamide). In the case of `CNC(=S)NS(=O)(=O)c1cc(CCNC(=O)c2cc(Cl)ccc2OC)ccc1OC` [HMR 1098], the “effect on the cardioprotective effect” value (HMR 1098 30 μM, 15 min alone then 15 min with erythropoietin 1.0 U/ml) is given as “abolished; also recorded: completely prevented; also recorded: completely blocked”. Turning to `COC(=O)[C@@H](N)CCCNC(=N)N[N+](=O)[O-]` [L-NAME], the “effect on the cardioprotective effect” value (L-NAME 200 μM combined with erythropoietin 1.0 U/ml for 15 minutes) is on record as “did not block”. On to `CNC(=N)NCCC[C@H](N)C(=O)O` [L-NMA], for which, for the setting “L-NMA 100 μM combined with erythropoietin 1.0 U/ml for 15 minutes”, the “effect on the cardioprotective effect” value is “did not block”. In the case of `COc1cccc(-c2cc(=O)c3ccccc3o2)c1N` [PD98059], the “effect of protein kinase inhibitor on the cardioprotective effect of erythropoietin” value (“effect of protein kinase inhibitor” for short) is “abolished”.

Turning to `CC(C)(O)[C@H]1O[C@H]2CC[C@@]3(C)[C@@](O)(CC[C@H]4Cc5c([nH]c6ccccc56)[C@@]43C)C2=CC1=O` [Paxilline], the “effect on untreated hearts” value (Paxilline 1 μM alone, no erythropoietin) was “no effect”. For `C[S+]([O-])c1ccc(-c2nc(-c3ccncc3)c(-c3ccc(F)cc3)[nH]2)cc1` (centres unmarked) [SB203580], the “effect of protein kinase inhibitor” value is reported as “abolished”. In the case of `COc1ccc2c(c[n+](C)c3c4cc5c(cc4ccc23)OCO5)c1OC` [chelerythrine], the “effect of protein kinase inhibitor” value is “abolished”.
